Source: US20180289655A1, “Methods and Compositions for the Intravenous Administration of Fumarates for the Treatment of Neurological Diseases” (Biogen MA Inc., priority 2015, published 2018)
Where “and” joins values, the source holds several entries; their conditions need not be identical. Identical values can stand only once. Entries after “also recorded” stand apart in the source; their conditions may differ. Counter-ions that a name gives are not always drawn. Values belong to the molecule of their own block, whether it stands above or below them.

Columns and labels:
[1] = (^14C)DMF distribution viewed in sagittal section (QWBA); format: in vivo, mice; details: 10 and 60 minutes
[2] = MMF exposure in plasma and tissues after DMF PO/IV or MMF IV (LC-MS/MS); format: in vivo, C57BL/6 mice
Description: Aliquots (25 μL) of either plasma or tissue homogenate samples were extracted by protein precipitation with acetonitrile containing 4C13-MMF as the internal standard. For tissue samples, aliquots of homogenization solution (plasma with 12.5 mg/mL of NaF) were added to the tissue samples. The tissue samples were homogenized at 6.5 m/s for 60 seconds on a Fast Prep Tissue Homogenizer prior to protein precipitation. Concentrations of MMF in plasma, brain, jejunum and kidney samples were determined using qualified LC-MS/MS assays in the respective matrices. Data collections and integrations were accomplished using an API 5500 triple quadrupole mass spectrometer with a turbo ion spray interface (AB Sciex, Foster City, Calif.), and Analyst software (version 1.6.1). The peak area ratios of MMF relative to its internal standard were used to construct a standard curve using a quadratic regression with a 1/x^2 weighting. The lower limits of quantitation (LLOQ) were 1 ng/mL for the three tissue assays and 10 ng/mL for the plasma assay, respectively. The performances of the assays were monitored by the precision and accuracy of the standards and quality control samples.
MMF exposure levels were evaluated 10 minutes and 2 hours after dosing, while pharmacodynamic transcriptional responses were analyzed at 2 hours post-dose.
(§1) At the 10-minute time point, 4 animals from each group were sacrificed, with plasma and tissues (brain, jejunum and kidney) collected to determine MMF exposure. Two hours after dosing, the remaining 4 animals were sacrificed, and plasma and tissues were collected. Tissue samples from the 2-hour time point were divided, with half of each sample used for MMF exposure analysis, and half for RNA extraction and qRT-PCR to evaluate the expression of Nrf2 target genes.
MMF exposure levels were evaluated 10 minutes and 2 hours after dosing, while transcriptional pharmacodynamic responses were analyzed at 2 and 6 hours post-dose. A complete blood count (CBC) with differential panel was performed at 10 minutes, 2 hours, and 6 hours post-dose.
(§2) Ten minutes after dosing, 4 animals from each group were sacrificed, and plasma and tissues (brain, kidney, jejunum and spleen) were collected to quantify MMF exposure levels, as well as whole blood to perform CBC. Two hours post-dose, another 4 animals from each group were sacrificed, and plasma, whole blood, and tissues were collected. Tissue samples from the 2-hour time point were split, with half of each sample used for MMF exposure analysis, and half for RNA extraction/qRT-PCR to evaluate the expression of Nrf2 target genes. Six hours after dosing, the last 4 animals from each group were sacrificed, and whole blood and tissues were collected.

[3] = system: Akr1b8; test: qRT-PCR transcript fold-change in tissues after DMF or MMF dosing; format: in vivo, C57BL/6 mice; details: MMF IV 30 mpk, Study 2
Description: (§3) For RNA preparation, frozen tissues were placed in 2 mL RNAse-free 96-well blocks with 1.5 mL QIAzol Lysis Reagent (QIAgen) and a 3.2 mm stainless steel bead (BioSpec Products, Bartlesville, Okla.). Tissues were disrupted for four cycles of 45 seconds in a Mini-Beadbeater (Biospec Products). RNA was extracted with chloroform and the aqueous phase was mixed with an equal volume of 70% ethanol. Extracted RNA was applied to RNeasy 96 plates and purified by the spin method according to the manufacturer's protocol (RNeasy 96 Universal Tissue Protocol, QIAgen, Hilden Germany).
(§4) Samples were reverse-transcribed into cDNA according to the manufacturer protocols using the High Capacity cDNA Reverse Transcription Kit (Life Technologies, Carlsbad, Calif.) and analyzed by qRT-PCR. Mouse target gene primers and 6-FAM™ dye-labeled TaqMan® MGB™ probes (Life Technologies) were used. Reactions containing 100 ng of cDNA, 900 nM of each primer, and 250 nM TaqMan probes were cycled on a QuantStudio 12 k-flex system (Life Technologies) once for 10 minutes at 95° C., followed by 40 cycles of 95° C. for 10 seconds and 60° C. for 1 minute. All samples were measured in triplicate with Gapdh as a normalizing gene. Taqman primer/probe sets from Life Technologies included: Akr1b8 (Mm00484314_m1); Gapdh (Mm03302249_g1); Gclc (Mm00802655_m1); Hmox1 (Mm00516005_m1); Nqo1 (Mm01253561_m1); and Osgin1 (Mm00660947_m1). Comparative CT method was used to calculate fold changes and samples were normalized relative to time-matched vehicle control.
as §1, §2
(§5) Table 7 is a summary table of fold changes, relative to time-matched vehicle controls, for indicated genes in indicated tissues. Values indicate the mean fold-change±the standard deviation (n=4). Changes that were significant from vehicle are indicated in bold (one way ANOVA with Tukey's multiple comparison test).
(§6) A CBC with differential panel was performed at 10 minutes post-last dose via facial vein bleeding, and at 2 hours after the last dose, pharmacodynamic Nrf2 transcriptional responses were analyzed in tissues from the same animals. Histopathology was also performed on regions of the tail in a pilot toxicology study.

[4] = system: Gclc; test: as above; format: in vivo, C57BL/6 mice; details: MMF IV 30 mpk, Study 2
Description: as §3, §4, §1, §2, §5, §6

[5] = system: Hmox1; test: as above; format: in vivo, C57BL/6 mice; details: MMF IV 30 mpk, Study 2
Description: as §3, §4, §1, §2, §5, §6

[6] = system: Nqo1; test: as above; format: in vivo, C57BL/6 mice; details: MMF IV 30 mpk, Study 2; for Nqo1 fold change vs vehicle, jejunum / Nqo1 fold change vs vehicle, kidney: 30 mg/kg
Description: as §3
as §4, with “control. […]” for “control.”
as §2
as §5, with “test). […]” for “test).”

[7] = system: Osgin1; test: as above; format: in vivo, C57BL/6 mice; details: MMF IV 30 mpk, Study 2; for Osgin1 fold change vs vehicle, jejunum / Osgin1 fold change vs vehicle, kidney: 30 mg/kg
Description: as §3
as §4, with “control. […]” for “control.”
as §2
as §5, with “test). […]” for “test).”

[8] = system: blood cell populations; test: Complete blood count (CBC) with differential after IV dosing; format: in vivo, C57BL/6 mice; details: Study 2, single IV dose DMF 30 mg/kg or MMF 27.08 mg/kg
Description: Whole blood samples (250 μL) were collected in EDTA tubes at indicated time points after dosing, and were maintained at 4° C. until analysis for CBC with differential at Charles River Laboratories (analyzed within 24-36 hours from time of collection).
Statistical analyses on blood cell fractions were not completed due to the overall variability and low number of replicates for the samples in this pilot study.
as §6

[9] = PET/MR imaging of (^11C)DMF tissue distribution after oral or intravenous administration; format: in vivo, CD1 mice
Description: To determine the localization and retention of DMF administered by different routes in vivo, mice were administered isotopically labeled DMF either orally or through tail vein injections. […] Acquired images from PET experiments were analyzed using inviCRO software. […] All animals were anaesthetized during image acquisition. […] The imaging data from the three groups of treated animals were quantified according to tissue type using inviCRO image analysis software. Regions of Interest (ROIs) for the brain, heart, liver, kidneys, scapular muscle, and whole body were defined by fitting ellipsoids of fixed volume to the regions. The scapular muscle ROI was hand-drawn and is not representative of all mouse muscle, but is composed of only a small region of its respective ROI.

(^14C) signal in sagittal section ([1]; PO 0.5 mg/kg): had less signal in the brain
Molecule: COC(=O)/[14CH]=[14CH]/C(=O)OC [(^14C)DMF, [2,3-^14C] DMF]
(^14C) signal in sagittal section ([1]; IV 0.5 mg/kg): displayed signal in the kidneys and brain

Kp at 10 min ([2]; C57BL/6, mouse, brain, Study 2, MMF IV 27.08 mg/kg, 10 minutes, read-out: Brain to plasma MMF ratio (tissue [MMF]/plasma [MMF]*100)): 7.2 ± 3 | concentration at 10 min ([2]; C57BL/6, mouse, plasma, Study 2, MMF IV 27.08 mg/kg, 10 minutes, n=4, read-out: MMF level in plasma): 13000 ng/mL and 100 µM | Difference in brain MMF levels, animals receiving MMF compared to DMF via IV dosing ([2]; Study 2, 10 minutes, not significant): 31%
Molecule: COC(=O)/C=C/C(=O)O [MMF, monomethyl fumarate]
MMF level in plasma or any tissues ([2]; Study 2, 2 hours, DMF 30 mg/kg or MMF 27.08 mg/kg IV): no detectable MMF in plasma or in any tissues | MMF levels in kidney, jejunum and spleen, DMF versus MMF ([2]; Study 2, IV, 10 minutes): no significant differences were noted in MMF levels | Tissue penetration ratios in kidney, jejunum or spleen, DMF versus MMF ([2]; Study 2, IV, 10 minutes): no significant differences in tissue penetration ratios | Akr1b8 fold change vs vehicle, brain ([3]; 2 hr): 1.0 ± 0.2 fold | Akr1b8 fold change vs vehicle, kidney ([3]; 2 hr): 1.2 ± 0.1 fold | Akr1b8 fold change vs vehicle, jejunum ([3]; 2 hr, 30 mg/kg): 2.4±0.7 fold | Akr1b8 fold change vs vehicle, brain ([3]; 6 hr): 1.0 ± 0.1 fold | Akr1b8 fold change vs vehicle, jejunum ([3]; 6 hr): 2.9 ± 1.2 fold | Akr1b8 fold change vs vehicle, kidney ([3]; 6 hr, 30 mg/kg): 1.5±0.1 fold | Gclc fold change vs vehicle, brain ([4]; 2 hr): 1.0 ± 0.0 fold | Gclc fold change vs vehicle, jejunum ([4]; 2 hr): 1.2 ± 0.3 fold | Gclc fold change vs vehicle, kidney ([4]; 2 hr, 30 mg/kg): 1.9±0.7 fold | Gclc fold change vs vehicle, brain ([4]; 6 hr): 1.0 ± 0.1 fold | Gclc fold change vs vehicle, jejunum ([4]; 6 hr, 30 mg/kg): 1.5±0.1 fold | Gclc fold change vs vehicle, kidney ([4]; 6 hr, 30 mg/kg): 2.3±0.6 fold | Hmox1 fold change vs vehicle, brain ([5]; 2 hr): 1.0 ± 0.1 fold | Hmox1 fold change vs vehicle, jejunum ([5]; 2 hr): 0.9 ± 0.1 fold | Hmox1 fold change vs vehicle, kidney ([5]; 2 hr): 1.6 ± 0.3 fold | Hmox1 fold change vs vehicle, brain ([5]; 6 hr): 1.0 ± 0.0 fold | Hmox1 fold change vs vehicle, jejunum ([5]; 6 hr): 1.1 ± 0.1 fold | Hmox1 fold change vs vehicle, kidney ([5]; 6 hr): 3.3 ± 0.8 fold | Nqo1 fold change vs vehicle, brain ([6]; 2 hr): 1.1 ± 0.1 fold | Nqo1 fold change vs vehicle, jejunum ([6]; 2 hr): 1.5±0.2 fold | Nqo1 fold change vs vehicle, kidney ([6]; 2 hr): 1.6±0.4 fold | Nqo1 fold change vs vehicle, brain ([6]; 6 hr): 1.2 ± 0.1 fold | Nqo1 fold change vs vehicle, jejunum ([6]; 6 hr): 1.7±0.1 fold | Nqo1 fold change vs vehicle, kidney ([6]; 6 hr): 2.3±0.3 fold | Osgin1 fold change vs vehicle, brain ([7]; 2 hr): 1.9 ± 0.3 fold | Osgin1 fold change vs vehicle, jejunum ([7]; 2 hr): 1.6±0.1 fold | Osgin1 fold change vs vehicle, kidney ([7]; 2 hr): 2.4±0.8 fold | Osgin1 fold change vs vehicle, brain ([7]; 6 hr): 1.1 ± 0.1 fold | Osgin1 fold change vs vehicle, jejunum ([7]; 6 hr): 1.2±0.1 fold | Osgin1 fold change vs vehicle, kidney ([7]; 6 hr): 1.4±0.0 fold | Reduction in white blood cell counts (neutrophils, lymphocytes, monocytes, eosinophils, basophils) ([8]; 2-hour time point): did not specifically coincide with DMF or MMF treatment | Effect on red blood cells, hemoglobin, hematocrit, mean corpuscular volume, platelets ([8]; 10 minutes, 2 and 6 hours): no effect on red blood cells, hemoglobin, hematocrit, mean corpuscular volume, or platelets

Molecule: (^11C) dimethyl fumarate [(^11C)DMF]
PET signal distribution in tissues ([9]; IV 0.5 mg/kg, imaged up to 90 minutes, 0.5 mg/kg): positive signal throughout various tissues of the body including the brain and heart; also recorded: signal was higher in most tissues; also recorded: localized in numerous tissues, including the brain, as early as 30 seconds after administration | PET signal in brain regions ([9]; IV 0.5 mg/kg, 0.5 mg/kg): high levels of signal in all regions of the brain throughout the observation period; also recorded: all emitted a strong signal as compared to olfactory regions | PET signal in brain regions ([9]; PO 0.5 mg/kg or 200 mg/kg): almost no signal was detected in any region; also recorded: significantly lower levels of signal throughout the brain
